We go through eight compounds from patent US8207216B2, “Benzofuran-3-yl(indol-3-yl) maleimides as potent GSK3 inhibitors” (The Board of Trustees of the University of Illinois, priority 2006, dated 2012).

One test relates to HupT3. The test is described as follows: Antiproliferation MTS assay, pancreatic cancer cells. It counts as cell-based. The note with it: Homo sapiens, HuP-T3, as reported in Gaisina et al. (2009) J. Med. Chem. 52(7), 1853-1863.
The subject of another test is MIAPaCa-2. The description is as above. It is filed as cell-based. Particulars: Homo sapiens.
For test [1], the system named is pancreatic cancer cell lines. The note with it: BXPC3, HupT3 and MiaPaCa-2; Ougolkov et al. (2007) Blood 110: 735-742; cited from earlier work.
A further test relates to BXPC-3. The test is described as follows: Antiproliferation MTS assay, pancreatic cancer cells. It counts as cell-based. The note with it: Homo sapiens, BXPC-3, as reported in Gaisina et al. (2009) J. Med. Chem. 52(7), 1853-1863. (In general: Tetrazolium assays rely on reduction of a dye to a coloured formazan, in cell work by metabolically active cells.)
The subject of the next test is GSK-3β. Nature of the test: GSK-3β activity in cells by glycogen synthase phosphorylation, Western immunoblotting. It is filed as cell-based. (A western blot detects proteins with antibodies after separation by electrophoresis.)
A further test concerns XIAP. The test is described as follows: NFκB-mediated expression of XIAP in pancreatic cancer cells. It is filed as cell-based.
Test [2] deals with T1, recombinant human His6-GSK-3β (Homo sapiens, UniProt P49841).
T1 construct: His6; purchased EMD Biosciences
T1 sequence (P49841 whole entry): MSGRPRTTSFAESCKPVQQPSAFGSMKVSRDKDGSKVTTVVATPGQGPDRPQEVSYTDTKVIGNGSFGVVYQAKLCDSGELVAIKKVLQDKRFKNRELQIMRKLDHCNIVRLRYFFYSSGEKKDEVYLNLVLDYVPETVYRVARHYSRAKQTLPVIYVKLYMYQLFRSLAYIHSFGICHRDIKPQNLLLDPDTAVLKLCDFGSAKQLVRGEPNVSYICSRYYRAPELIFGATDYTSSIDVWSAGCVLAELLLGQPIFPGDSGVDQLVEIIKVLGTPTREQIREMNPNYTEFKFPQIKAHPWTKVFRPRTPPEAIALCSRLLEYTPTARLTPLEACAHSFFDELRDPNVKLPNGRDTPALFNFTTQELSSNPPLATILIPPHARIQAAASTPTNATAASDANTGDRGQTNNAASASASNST
The test is described as follows: GSK-3β kinase assay, [γ32P] transfer to primed glycogen synthase peptide.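 Note: phosphate incorporation quantified by liquid scintillation counting of the filters.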 It is filed as biochemical. Particulars: 10 μM ATP; 10 μM pGSM peptide; 30 minutes at 30° C.; read-out: IC50 (nM), GSK-3β inhibition.

Another test concerns the target PKCβ2 (Homo sapiens, UniProt P05771). The test is described as follows: Inhibition of various kinases (% inhibition). It is filed as biochemical. The source says:
(§1) Additional examples of selectivity are illustrated in Table 4.

The next test addresses CDK2 (Homo sapiens, UniProt P24941). Nature of the test: Inhibition of various kinases (% inhibition). It is filed as biochemical.
From the text: as §1

The target of the next test is GSK3α (Homo sapiens, UniProt P49840). Nature of the test: Inhibition of various kinases (% inhibition). It counts as biochemical.
GSK3α, sequence (P49840 whole entry, species assumed): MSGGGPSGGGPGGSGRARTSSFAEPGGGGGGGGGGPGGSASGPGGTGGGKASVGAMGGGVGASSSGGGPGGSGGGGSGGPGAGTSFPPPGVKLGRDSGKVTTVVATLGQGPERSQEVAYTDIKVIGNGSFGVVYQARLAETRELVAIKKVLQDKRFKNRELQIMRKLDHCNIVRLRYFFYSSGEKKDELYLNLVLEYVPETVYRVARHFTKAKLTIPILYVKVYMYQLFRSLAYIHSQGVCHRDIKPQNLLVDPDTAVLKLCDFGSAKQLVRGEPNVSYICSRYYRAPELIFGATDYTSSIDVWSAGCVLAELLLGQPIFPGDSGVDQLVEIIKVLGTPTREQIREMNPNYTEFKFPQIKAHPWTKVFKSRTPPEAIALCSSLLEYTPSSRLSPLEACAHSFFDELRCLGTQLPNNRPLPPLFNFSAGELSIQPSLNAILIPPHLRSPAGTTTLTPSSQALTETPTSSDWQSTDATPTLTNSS
From the text: as §1

A further test deals with T2, PDK1 (Homo sapiens, UniProt O15530).
T2 sequence (O15530 1-556): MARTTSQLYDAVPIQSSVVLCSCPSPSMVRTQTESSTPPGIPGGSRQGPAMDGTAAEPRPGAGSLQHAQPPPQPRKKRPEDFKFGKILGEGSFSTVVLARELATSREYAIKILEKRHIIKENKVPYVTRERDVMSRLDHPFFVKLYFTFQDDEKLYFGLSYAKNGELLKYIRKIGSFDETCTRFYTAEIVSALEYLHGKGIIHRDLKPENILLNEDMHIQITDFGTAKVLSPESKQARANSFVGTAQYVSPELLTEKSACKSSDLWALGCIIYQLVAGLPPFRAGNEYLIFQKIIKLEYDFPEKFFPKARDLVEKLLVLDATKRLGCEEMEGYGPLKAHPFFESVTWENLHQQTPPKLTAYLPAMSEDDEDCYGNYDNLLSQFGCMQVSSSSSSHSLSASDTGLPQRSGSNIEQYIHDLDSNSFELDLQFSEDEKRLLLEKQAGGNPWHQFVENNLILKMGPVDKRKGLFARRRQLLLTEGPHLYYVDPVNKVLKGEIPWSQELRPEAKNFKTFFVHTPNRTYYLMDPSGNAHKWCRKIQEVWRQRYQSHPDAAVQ
Nature of the test: Inhibition of various kinases (% inhibition). It counts as biochemical.
From the text: as §1

The subject of a further test is C57BL/6J mice. The test is described as follows: Amphetamine/chlordiazepoxide hyperactivity model of mania, open field locomotor activity. It counts as in vivo. The note with it: 5-ING-135 50 mg/kg, 5 min pretreatment; amphetamine 4 mg/kg + chlordiazepoxide 2.5 mg/kg; 60 min. The protocol: Hyperactivity models are often used to mimic the mania associated with bipolar disorder.
Certain benzofuran-based ligands of this invention were studied in a novel mouse model of mania that has recently been validated with several clinically effective mood stabilizers. […] Mice were then injected with amphetamine (4 mg/kg) or amphetamine (4 mg/kg) and chlordiazepoxide (2.5 mg/kg) and locomotor activity was monitored for 60 min. The open field is a square box surrounded by an array of infra-red beams and their behavior is automatically recorded for 60 minutes in the open field test chamber (10.75″×10.75″×8″H with infra-red (I/R) array, model ENV 510, MED Associates). After this period the animals were returned to their home cages and then to the main colony.
Control treatments are as indicated. FIG. 1B illustrates similar locomotion activity data of treated mice measured in cm over 5 minute intervals for 60 minutes.

Another test deals with OVCA432. The test is described as follows: Antiproliferation assay, ovarian cancer cells. It is filed as cell-based. The note with it: ovarian cancer cell proliferation. As for the experimental part:
(§2) The pancreatic cancer cell lines BxPc-3, HupT3, MiaPaCa-2, Panc 04.03, and SU86.86 were obtained from ATCC (Rockville, Md.) and were grown in medium (DMEM or RPMI) containing 10% fetal calf serum and L-glutamine. Pancreatic cancer cells were plated out in duplicate into 6-wells of a 96-well microtiter plate at 2.5−4×10^3 cells per well. Four-hours post plating, individual wells were treated with diluent (DMSO) or varying concentrations of commercial compounds, AR-A014418 and SB216763, or the indicated GSK inhibitors of this invention from a concentration of 1 nM to 50 microM. […] The IC50s were calculated using XLfit (IDBS Limited, Guildford, UK).
(§3) Similar antiproliferation assays were performed using ovarian cancer cells. Compound 40 is of particular interest for inhibition of ovarian cancer cell proliferation.

The next test deals with SKOV3. Nature of the test: Antiproliferation assay, ovarian cancer cells. It is filed as cell-based. Particulars: Homo sapiens, SK-OV-3; ovarian cancer cell proliferation. The protocol: as §2, §3
In test [3] the test system is pancreatic cancer cell lines. Nature of the test: Proliferation and survival of pancreatic cancer cells (overall statements). It is filed as cell-based. The protocol:
as §2

For another test, the system named is mice. The note with it: Hanania et al. 2005, Brody et al. 2003; cited from earlier work.
Where [4] appears, read: MIA PaCa-2, as reported in Gaisina et al. (2009) J. Med. Chem. 52(7), 1853-1863.

PKCβ2, sequence (P05771 1-673 isoform P05771-2): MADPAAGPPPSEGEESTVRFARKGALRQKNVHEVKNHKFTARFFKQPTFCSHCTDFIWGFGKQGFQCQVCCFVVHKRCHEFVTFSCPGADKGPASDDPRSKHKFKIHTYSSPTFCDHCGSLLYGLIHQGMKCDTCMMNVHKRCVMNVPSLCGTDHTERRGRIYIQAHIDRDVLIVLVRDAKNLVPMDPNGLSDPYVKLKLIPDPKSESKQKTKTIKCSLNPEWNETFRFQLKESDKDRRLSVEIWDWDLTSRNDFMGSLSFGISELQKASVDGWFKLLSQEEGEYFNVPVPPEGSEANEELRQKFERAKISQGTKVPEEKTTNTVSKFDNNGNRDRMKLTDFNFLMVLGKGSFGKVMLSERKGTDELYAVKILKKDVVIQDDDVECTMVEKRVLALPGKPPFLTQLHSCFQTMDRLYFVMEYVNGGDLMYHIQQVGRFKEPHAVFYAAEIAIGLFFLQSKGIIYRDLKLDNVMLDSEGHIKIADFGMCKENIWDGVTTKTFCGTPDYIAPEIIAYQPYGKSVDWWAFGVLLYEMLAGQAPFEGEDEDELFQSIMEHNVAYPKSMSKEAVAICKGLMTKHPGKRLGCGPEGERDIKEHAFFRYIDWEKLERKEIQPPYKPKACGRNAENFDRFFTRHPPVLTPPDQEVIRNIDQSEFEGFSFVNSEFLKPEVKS

Turning to `COc1ccc(CNC(=O)Nc2ncc([N+](=O)[O-])s2)cc1` [AR-A014418, reference compound], the 50% inhibitory concentration (IC50) (commonly the concentration needed to halve the response being measured) with HupT3 was 22 ± 2.1 µM; in the test with MIAPaCa-2 (setting [4]), 29 ± 1.7 µM; in the test with MIAPaCa-2 (MIA PaCa-2, 72 hrs, MTS), 25 µM; in the test on BXPC-3, 14 ± 0.6 µM. Besides, in test [1], the “Pancreatic cancer cell proliferation, reference compounds” value was “significant decrease in pancreatic cancer cell proliferation”.
Regarding `COc1cccc2c(C3=C(c4cn(C)c5cc(I)c(F)cc45)C(=O)NC3=O)coc12` [Compound 10, 3-(5-Fluoro-6-iodo-1-methyl-1H-indol-3-yl)-4-(7-methoxy-benzofuran-3-yl)-pyrrole-2,5-dione], in the test with GSK-3β, the “GSK-3β activity in pancreatic cancer cells (phosphorylation of glycogen synthase)” value (“GSK-3β activity” below) is reported as “effectively inhibited GSK-3β activity”. Also, in the test with XIAP, the “NFκB-mediated expression of XIAP” value is “pronounced decrease in NFκB-mediated expression of XIAP”. Further, the IC50 in test [2] was determined as 247 ± 28 nM. For the same compound, the inhibition (as a rule, the relative decrease from the control value, in per cent) at 1 µM is 2% against PKCβ2, 9% against CDK2, 60% against GSK3α and -1% at PDK1. Besides, the inhibition at 10 µM against PKCβ2 was found to be 15%; against CDK2, 35%; at GSK3α it was 95%; on PDK1, 6%.
For the compound `C#Cc1ccc2c(c1)c(C1=C(c3coc4ccccc34)C(=O)NC1=O)cn2C` [Compound 36, 3-Benzofuran-3-yl-4-(5-ethynyl-1-methyl-1H-indol-3-yl)-pyrrole-2,5-dione], the IC50 was greater than 50 µM in the test with MIAPaCa-2 (MIA PaCa-2, 72 hrs, MTS) and 9.6 ± 4 nM in test [2]. In addition, in the test with C57BL/6J mice, the “Inhibition of hyperactivity produced by amphetamine/chlordiazepoxide (locomotor activity)” value is recorded as “exhibited inhibition of the hyperactivity”. Further, the inhibition at 1 µM against PKCβ2 worked out at 24%; on CDK2 it was 68%; on GSK3α, 89%; against PDK1 it was 14%. In addition, the inhibition at 10 µM on PKCβ2 is 74%; against CDK2, 100%; against GSK3α, 100%; at PDK1, 27%.
As to `Cn1cc(C2=C(c3coc4ccc(F)cc34)C(=O)NC2=O)c2cc3c(cc21)OCO3` [Compound 40, 3-(5-Fluoro-benzofuran-3-yl)-4-(5-methyl-5H-[1,3]dioxolo[4,5-f]indol-7-yl)-pyrrole-2,5-dione], in the test on GSK-3β, the “GSK-3β activity” value is “effectively inhibited GSK-3β activity”. Moreover, in the test with XIAP, the “NFκB-mediated expression of XIAP” value is reported as “pronounced decrease in NFκB-mediated expression of XIAP”. Also, the IC50 in the test with OVCA432 was found to be 11.2 µM; with SKOV3 it was 10.5 µM; in [2], 708 ± 156 nM.
`COc1cc2c(C3=C(c4coc5ccccc45)C(=O)NC3=O)cn(C)c2cc1Cl` [Compound 42, 3-Benzofuran-3-yl-4-(6-chloro-5-methoxy-1-methyl-1H-indol-3-yl)-pyrrole-2,5-dione]: the “GSK-3β activity” value in the test on GSK-3β is “did not affect GSK-3β activity”. Moreover, the 50% inhibitory concentration (IC50) was greater than 50 µM in the test on MIAPaCa-2 (MIA PaCa-2, 72 hrs, MTS) and 440 ± 22 nM in test [2]. Moreover, the “Proliferation and survival of pancreatic cancer cells” value in test [3] was “did not affect GSK-3β activity, proliferation or survival”.
As to `Cn1cc(C2=C(c3coc4ccc(F)cc34)C(=O)NC2=O)c2ccc(O)cc21` [Compound 46, 3-(5-Fluoro-benzofuran-3-yl)-4-(6-hydroxy-1-methyl-1H-indol-3-yl)-pyrrole-2,5-dione], in test [2], the IC50 was determined as 14 ± 3 nM. The “Inhibition of hyperactivity produced by amphetamine/chlordiazepoxide (locomotor activity)” value in the test on C57BL/6J mice is “exhibited inhibition of the hyperactivity”.
With `Cn1cc(C2=C(c3ccc(Cl)cc3Cl)C(=O)NC2=O)c2ccccc21` [SB216763, reference compound], the IC50 with MIAPaCa-2 (setting [4]) is 25 ± 0.9 µM; with MIAPaCa-2 (MIA PaCa-2, 72 hrs, MTS) it was 25 µM. For the same compound, the “Pancreatic cancer cell proliferation, reference compounds” value in test [1] was “significant decrease in pancreatic cancer cell proliferation”.
Turning to `CCCC(CCC)C(=O)O` [valporate], the “Sensorimotor gating (prepulse inhibition)” value with mice is listed as “improve sensorimotor gating”.
